Bounds are passed on as bounds.

One data set concerns the target T1, hNav1.6 (Homo sapiens, UniProt Q9UQD0).
T1 construct: host or cells: HEK293
Description: automated whole-cell patch clamp (QPatch 16X), HEK293-hNav1.6. In kind it is cell-based.

Another data set has as its target T2, hNav1.2 (Homo sapiens, UniProt Q99250).
T2 construct: host or cells: HEK293
The experiment in a line: automated whole-cell patch clamp (QPatch 16X), HEK293-hNav1.2. In kind it is cell-based.

Another data set relates to CVH mice. The experiment in a line: visceromotor response (VMR) to colorectal distension in chronic visceral hypersensitivity (CVH) mice. In kind it is in vivo, mouse. The note with it: intra-colonic 200 nM. As for the experimental part:
Model of Chronic Visceral Hypersensitivity (CVH). All experiments were performed in accordance with the guidelines of the Animal Ethics Committees of the South Australian Health and Medical Research Institute (SAHMRI) and Flinders University. Male C57 BL/6 mice were used in all experiments.
Colitis was induced by administration of Trinitrobenzene Sulphonic acid (TNBS) as described previously (Castro et al., Gut 66(6):1083-1094 (2017); Osteen et al., Nature 534: 494-499 (2016)). Briefly, 13-week-old mice were fasted overnight with access to 5% glucose solution. After the fasting period, isofluorane anaesthetized mice were administered an intracolonic enema of 0.1 mL TNBS ([…] in 30% EtOH) via a polyethylene catheter inserted 3 cm past the anus. […]
In vivo Visceromotor Responses (VMR) to Colorectal Distension (CRD). […] The EMG electrodes were relayed to a data acquisition system and the signal was recorded (NL100AK headstage), amplified (NL104), filtered (NL 125/126, Neurolog, Digitimer Ltd, bandpass 50-5000 Hz) and digitized (CED 1401, Cambridge Electronic Design, Cambridge, UK) to a PC for off-line analysis using Spike2 (Cambridge Electronic Design). […] To quantify the magnitude of the VMR at each distension pressure, the area under the curve (AUC) during the distension (20 s) was corrected for the baseline activity (AUC pre-distension, 20 s).

In another data set the target is T3, hNav1.1 (Homo sapiens, UniProt P35498).
T3 construct: host or cells: HEK293
The experiment in a line: automated whole-cell patch clamp (QPatch 16X), HEK293-hNav1.1. In kind it is cell-based.

The target of the next data set is T4, hNav1.7 (Homo sapiens, UniProt Q15858).
T4 construct: host or cells: HEK293
The experiment in a line: conventional whole cell patch clamp, kinetic studies on hNav1.7. In kind it is cell-based. As for the experimental part: Conventional patch clamp. Coverslips containing cells of HEK293 stable expressing hNav1.7 α and human β1 subunits were placed in a recording chamber on the stage of an inverted microscope with the extracellular solution containing 140 mM NaCl, 2 mM CaCl2, 4 mM KCl, 1 mM MgCl2, and 10 mM HEPES (pH 7.4 with NaOH). […] All recordings were made at room temperature (22-24° C.) using MultiClamp 700B amplifier, Axo™ Digidata® 1550B and PCLAMP software (Molecular Devices). Nav channel currents were measured using the whole cell configuration of the patch clamp technique. All peptides were dissolved in the extracellular solution with 0.1% BSA. The effects of peptides were tested by using the same voltage protocol as showing in the Qpatch technique. Concentration response data were analysed using nonlinear least-squares fit of the log (inhibitor) vs. response (three parameters) (GraphPad Prism 7) to provide pIC50 determinations. The conductance-voltage (G-V) relationships obtained by using a protocol in which cells depolarised from a holding potential of −120 mV, stepping from −80 to +60 mV in 5 mV increments. Steady-state inactivation was obtained by applying a depolarisation to 0 mV following a series step potential from −120 mV to 20 mV in 5 mV increments. The V0.5 activation and inactivation were calculated by fitting data with Boltzmann equation in GraphPad Prism 7. Recovery from fast inactivation was obtained by applying a first 0 mV pulse followed by repolarisation to −120 mV and a second pulse to 0 mV after a period ranging from 0 to 50 ms, increasing in 1 ms increments. The time constant was calculated by fitting data with one-phase decay in GraphPad Prism 7.

In another data set the target is T5, hNav1.3 (Homo sapiens, UniProt Q9NY46).
T5 construct: host or cells: HEK293
Description: automated whole-cell patch clamp (QPatch 16X), HEK293-hNav1.3. In kind it is cell-based.

The conditions of data set [1]: 10 μM, 37° C.
Setting [2] is: 60 nM, compared to vehicle, P<0.01.

T2 sequence (Q07699 19-218): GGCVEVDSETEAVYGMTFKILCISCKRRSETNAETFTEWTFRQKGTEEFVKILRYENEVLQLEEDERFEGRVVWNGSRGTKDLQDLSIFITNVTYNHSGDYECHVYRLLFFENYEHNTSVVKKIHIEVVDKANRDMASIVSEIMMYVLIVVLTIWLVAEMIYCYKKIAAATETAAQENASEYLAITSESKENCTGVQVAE
T2 sequence (Q99250 whole entry): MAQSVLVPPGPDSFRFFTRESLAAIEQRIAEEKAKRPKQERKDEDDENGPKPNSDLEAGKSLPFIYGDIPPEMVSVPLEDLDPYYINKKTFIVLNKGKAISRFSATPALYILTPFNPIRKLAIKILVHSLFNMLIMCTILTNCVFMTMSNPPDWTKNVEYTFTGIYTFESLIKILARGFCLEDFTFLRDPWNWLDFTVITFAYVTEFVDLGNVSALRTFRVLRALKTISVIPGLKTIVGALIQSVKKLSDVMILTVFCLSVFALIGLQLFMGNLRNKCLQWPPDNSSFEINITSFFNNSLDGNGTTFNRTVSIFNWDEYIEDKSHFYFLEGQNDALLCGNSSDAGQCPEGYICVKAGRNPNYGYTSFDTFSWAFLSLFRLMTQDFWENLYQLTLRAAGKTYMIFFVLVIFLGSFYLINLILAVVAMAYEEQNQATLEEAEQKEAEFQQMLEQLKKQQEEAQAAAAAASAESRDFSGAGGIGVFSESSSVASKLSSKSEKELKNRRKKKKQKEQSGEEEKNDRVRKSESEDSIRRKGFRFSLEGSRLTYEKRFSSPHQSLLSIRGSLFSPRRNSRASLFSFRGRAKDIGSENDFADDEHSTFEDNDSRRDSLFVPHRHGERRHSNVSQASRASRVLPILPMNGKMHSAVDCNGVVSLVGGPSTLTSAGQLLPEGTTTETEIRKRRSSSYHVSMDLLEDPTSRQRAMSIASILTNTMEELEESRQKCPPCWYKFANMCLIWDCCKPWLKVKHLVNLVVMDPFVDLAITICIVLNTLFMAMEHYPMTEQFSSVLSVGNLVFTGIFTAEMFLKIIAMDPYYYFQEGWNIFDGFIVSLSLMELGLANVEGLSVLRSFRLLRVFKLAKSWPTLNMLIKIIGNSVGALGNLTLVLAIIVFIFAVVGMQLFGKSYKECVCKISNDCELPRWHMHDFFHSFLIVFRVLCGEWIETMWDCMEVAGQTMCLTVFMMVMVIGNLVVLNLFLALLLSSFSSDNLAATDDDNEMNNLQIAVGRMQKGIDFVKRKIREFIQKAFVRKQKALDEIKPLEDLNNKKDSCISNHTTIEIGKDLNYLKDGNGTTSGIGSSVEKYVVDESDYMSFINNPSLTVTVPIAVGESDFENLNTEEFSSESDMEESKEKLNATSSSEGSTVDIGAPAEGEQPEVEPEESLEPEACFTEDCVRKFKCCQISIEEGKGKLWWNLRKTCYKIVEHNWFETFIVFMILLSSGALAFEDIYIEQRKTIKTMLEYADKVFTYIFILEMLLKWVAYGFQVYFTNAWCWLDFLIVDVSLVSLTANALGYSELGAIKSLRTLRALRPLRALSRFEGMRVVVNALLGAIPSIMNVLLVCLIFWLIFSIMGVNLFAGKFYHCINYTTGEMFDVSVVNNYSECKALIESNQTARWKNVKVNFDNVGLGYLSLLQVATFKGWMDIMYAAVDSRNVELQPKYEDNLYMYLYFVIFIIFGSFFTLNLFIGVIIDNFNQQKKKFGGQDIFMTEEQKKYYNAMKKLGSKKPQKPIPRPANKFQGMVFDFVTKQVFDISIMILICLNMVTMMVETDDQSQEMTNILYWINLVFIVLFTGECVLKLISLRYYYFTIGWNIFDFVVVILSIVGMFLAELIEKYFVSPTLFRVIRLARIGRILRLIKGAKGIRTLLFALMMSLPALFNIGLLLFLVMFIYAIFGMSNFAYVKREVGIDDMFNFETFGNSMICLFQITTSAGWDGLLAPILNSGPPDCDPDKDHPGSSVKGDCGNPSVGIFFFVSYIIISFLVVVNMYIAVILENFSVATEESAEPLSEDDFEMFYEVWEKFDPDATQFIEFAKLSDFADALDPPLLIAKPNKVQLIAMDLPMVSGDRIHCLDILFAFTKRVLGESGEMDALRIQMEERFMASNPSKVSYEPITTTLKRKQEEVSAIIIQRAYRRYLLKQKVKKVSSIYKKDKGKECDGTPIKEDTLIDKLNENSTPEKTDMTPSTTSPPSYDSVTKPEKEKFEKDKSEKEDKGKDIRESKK
T1 sequence (Q07699 19-218): as the sequence (Q07699 19-218) above
T1 sequence (Q9UQD0 whole entry): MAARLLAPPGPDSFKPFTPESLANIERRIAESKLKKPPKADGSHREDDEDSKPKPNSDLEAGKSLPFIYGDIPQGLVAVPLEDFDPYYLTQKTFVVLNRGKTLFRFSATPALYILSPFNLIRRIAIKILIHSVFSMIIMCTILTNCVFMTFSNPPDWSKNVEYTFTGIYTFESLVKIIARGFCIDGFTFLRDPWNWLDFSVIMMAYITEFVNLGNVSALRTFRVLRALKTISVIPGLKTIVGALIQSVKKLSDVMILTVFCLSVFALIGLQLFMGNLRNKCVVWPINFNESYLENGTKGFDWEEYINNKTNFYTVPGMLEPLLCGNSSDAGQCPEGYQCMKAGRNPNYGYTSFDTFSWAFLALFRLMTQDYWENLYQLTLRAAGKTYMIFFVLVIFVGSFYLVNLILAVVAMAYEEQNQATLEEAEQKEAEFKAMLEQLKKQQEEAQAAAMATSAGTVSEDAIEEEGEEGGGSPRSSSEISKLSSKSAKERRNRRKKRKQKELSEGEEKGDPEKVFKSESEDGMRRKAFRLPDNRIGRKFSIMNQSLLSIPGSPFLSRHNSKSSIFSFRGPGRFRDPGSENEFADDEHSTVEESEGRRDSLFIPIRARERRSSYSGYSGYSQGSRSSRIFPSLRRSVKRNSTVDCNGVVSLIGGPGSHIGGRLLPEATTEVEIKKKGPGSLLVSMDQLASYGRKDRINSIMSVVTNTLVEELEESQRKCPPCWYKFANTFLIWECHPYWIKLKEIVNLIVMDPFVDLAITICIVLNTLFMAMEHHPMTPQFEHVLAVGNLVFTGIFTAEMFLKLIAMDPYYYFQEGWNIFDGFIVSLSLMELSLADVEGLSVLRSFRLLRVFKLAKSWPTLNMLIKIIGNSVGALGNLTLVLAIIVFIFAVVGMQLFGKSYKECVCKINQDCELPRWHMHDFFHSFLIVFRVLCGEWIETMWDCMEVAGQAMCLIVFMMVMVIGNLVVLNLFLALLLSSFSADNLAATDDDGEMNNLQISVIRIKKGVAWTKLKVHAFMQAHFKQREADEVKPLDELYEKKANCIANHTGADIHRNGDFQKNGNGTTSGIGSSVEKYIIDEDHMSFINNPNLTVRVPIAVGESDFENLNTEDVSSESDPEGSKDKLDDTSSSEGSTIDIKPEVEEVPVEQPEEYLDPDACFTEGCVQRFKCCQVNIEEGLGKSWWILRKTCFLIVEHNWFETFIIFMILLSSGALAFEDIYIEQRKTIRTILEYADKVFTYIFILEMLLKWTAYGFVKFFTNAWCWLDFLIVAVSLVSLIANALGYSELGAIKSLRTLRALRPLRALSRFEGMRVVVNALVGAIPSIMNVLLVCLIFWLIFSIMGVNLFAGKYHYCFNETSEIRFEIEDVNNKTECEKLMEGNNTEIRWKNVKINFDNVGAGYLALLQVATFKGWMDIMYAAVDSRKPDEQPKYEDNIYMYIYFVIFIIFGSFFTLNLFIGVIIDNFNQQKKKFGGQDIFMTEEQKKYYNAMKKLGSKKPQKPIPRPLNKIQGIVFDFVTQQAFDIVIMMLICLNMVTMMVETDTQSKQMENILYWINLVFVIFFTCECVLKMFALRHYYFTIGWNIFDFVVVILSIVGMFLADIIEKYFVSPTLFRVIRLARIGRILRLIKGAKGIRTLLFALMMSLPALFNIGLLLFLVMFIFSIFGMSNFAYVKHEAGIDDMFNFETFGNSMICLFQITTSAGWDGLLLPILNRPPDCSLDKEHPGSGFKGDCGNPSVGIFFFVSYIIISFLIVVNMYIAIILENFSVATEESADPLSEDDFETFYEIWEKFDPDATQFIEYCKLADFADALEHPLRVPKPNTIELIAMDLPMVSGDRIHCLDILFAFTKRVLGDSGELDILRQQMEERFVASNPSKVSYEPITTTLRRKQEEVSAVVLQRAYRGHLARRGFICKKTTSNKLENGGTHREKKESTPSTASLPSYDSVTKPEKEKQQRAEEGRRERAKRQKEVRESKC

Regarding `CC[C@H](C)[C@H](NC(=O)[C@H](CCCCN)NC(=O)[C@@H]1CSSC[C@@H]2NC(=O)[C@@H]3CCCN3C(=O)[C@H](CCCNC(=N)N)NC(=O)[C@H](CCC(=O)O)NC(=O)[C@H](CO)NC(=O)[C@H](CC(=O)O)NC(=O)[C@@H]3CSSC[C@H](NC(=O)[C@H](C(C)C)NC(=O)[C@H](CC(C)C)NC(=O)CNC(=O)[C@H](CCC(=O)O)NC(=O)[C@H](CSSC[C@H](NC(=O)[C@@H](N)Cc4ccc(O)cc4)C(=O)N[C@@H](CCC(N)=O)C(=O)N[C@@H](CCCCN)C(=O)N[C@@H](Cc4ccccc4)C(=O)N[C@@H](CC(C)C)C(=O)N[C@@H](Cc4c[nH]c5ccccc45)C(=O)N[C@@H]([C@@H](C)O)C(=O)N3)NC2=O)C(=O)N[C@@H](CCCNC(=N)N)C(=O)N[C@@H](CC(C)C)C(=O)N[C@@H](Cc2c[nH]c3ccccc23)C(=O)N1)C(=O)N[C@@H](CC(N)=O)C(N)=O` [sHsp1a], the “inhibition of hNav1.6 currents” value on hNav1.6 (at 200 nM) is “did not show any significant inhibition”. The inhibition at 2 µM on hNav1.6 (at 2 μM, read-out: max. current inhibition hNav1.6) was under 50%; at hNav1.2 (at 2 μM, read-out: max. current inhibition hNav1.2), 60%; on hNav1.1 (at 2 μM, read-out: current inhibition hNav1.1), 75%; on hNav1.3 (at 2 μM, read-out: max. current inhibition hNav1.3), under 50%. In addition, the IC50 is over 1 µM at hNav1.6 (read-out: pIC50 on hNav1.6 (converted)); 0.302 µM on hNav1.2 (mean±S.E.M, read-out: pIC50 on hNav1.2 (converted)); 0.407 µM at hNav1.1 (mean±S.E.M, read-out: pIC50 on hNav1.1 (converted)); over 1 µM on hNav1.3 (read-out: pIC50 on hNav1.3 (converted)). Also, on hNav1.2 (at 200 nM), the hNav1.2 currents blocked was found to be 30%. For the same compound, the “VMR to colorectal distension compared to CVH vehicle treated animals” value in the data set on CVH mice was “significantly reduced the VMR”. At hNav1.1 (at 200 nM), this compound gave a hNav1.1 currents blocked of 30%. The “V0.5 inactivation Δ” value on hNav1.7 (setting [2]) was −11.62 mV. The “Δτ, recovery from fast inactivation” value at hNav1.7 (setting [2]) is recorded as 1 ms. Moreover, on hNav1.7 (after application of 200 nM for 4 min), the “time for currents to recover following washout in peptide-free solution” value is about 10 min. Moreover, the “time constant τ of recovery from fast inactivation” value on hNav1.7 (in presence of 60 nM, n=5, mean±SEM) was 5.03 ± 0.43 ms. Also, at hNav1.3 (at 200 nM), the “inhibition of hNav1.3 currents” value is “did not show any significant inhibition”. The “amount in human serum after 24 hours” value in data set [1] is given as “remained constant”.
